These results are taken from PMC11555526, “Development of 2-Aminoadenine-Based Proteolysis-Targeting Chimeras (PROTACs) as Novel Potent Degraders of Monopolar Spindle 1 and Aurora Kinases” (ACS Pharmacology & Translational Science, 2024).

Series [1] in a line: Stability in buffer solutions (LC-ESI-MS). The series is classed as physicochemical. The settings on record: for residual concentration (% of initial concentration): after 24 h. As to the method: Lastly, to gain a first insight into the stability of the synthesized compounds in a biological system, the stability of one of the degraders was examined at two different pH values and in human plasma (Figures S8 and S9). We chose one of the best degraders of the SF1 series, 20 as it also resembled the best degrader from azareversine series 19 in terms of the linker and E3-binding moiety. All experiments were carried out at 37 °C, and aliquots were analyzed using LC-ESI-MS at predetermined time points. […] We concluded from the stability profile of 20 that it is sufficient for further testing. […]
Stability in Buffer Solutions
The stability of the conjugate was examined by performing chemostability experiments at two different buffer solutions (pH = 5.2 and 7.4). Conjugate 20 was dissolved in 5 µL DMSO and transferred to 0.5 mL of the relevant buffer solution (acetate or phosphate aquatic buffer solutions). The mixture was then incubated at 37 °C, samples were collected at predetermined time points (0, 1, 2, 3, 4, 5, 24 and 48 h), and analyzed by LC-MS.
Results are presented as the mean ± of SD after repeating the experiment three times.
Figure S9: ESI-LCMS charts detected at 254 nm of conjugate 20 at pΗ5.2 and selected time intervals

Series [2] can be described thus: Plasma stability (LC-ESI-MS). Format: in vitro ADME. As to conditions: 37 °C. As to the method: Lastly, to gain a first insight into the stability of the synthesized compounds in a biological system, the stability of one of the degraders was examined at two different pH values and in human plasma (Figures S8 and S9). We chose one of the best degraders of the SF1 series, 20 as it also resembled the best degrader from azareversine series 19 in terms of the linker and E3-binding moiety. All experiments were carried out at 37 °C, and aliquots were analyzed using LC-ESI-MS at predetermined time points. […] We concluded from the stability profile of 20 that it is sufficient for further testing.
First, 250 µg of conjugate 20 were diluted in 5 µL DMSO and the mixture was added to 0.5 mL of human plasma. The mixture was incubated at 37 °C. 50 µL of aliquot was removed at predetermined time points and quenched with 150 µL ice-cold acetonitrile (+0.1% formic acid). Then, the mixture was centrifuged at 10,000 rpm for 10 min. Then, 50 µL of supernatant was added to 50 µL of ultrapure water (+0.1% formic acid) and analyzed by LC-MS. Results are presented as the mean ± SD of three independent experiments. […]

Series [3] has as its target T1, AURKA (Homo sapiens, UniProt O14965).
T1 construct: endogenous in cells; host or cells: MV4-11 HiBiT-TTK cells (AURKA not transduced)
T1 sequence (O14965 1-403): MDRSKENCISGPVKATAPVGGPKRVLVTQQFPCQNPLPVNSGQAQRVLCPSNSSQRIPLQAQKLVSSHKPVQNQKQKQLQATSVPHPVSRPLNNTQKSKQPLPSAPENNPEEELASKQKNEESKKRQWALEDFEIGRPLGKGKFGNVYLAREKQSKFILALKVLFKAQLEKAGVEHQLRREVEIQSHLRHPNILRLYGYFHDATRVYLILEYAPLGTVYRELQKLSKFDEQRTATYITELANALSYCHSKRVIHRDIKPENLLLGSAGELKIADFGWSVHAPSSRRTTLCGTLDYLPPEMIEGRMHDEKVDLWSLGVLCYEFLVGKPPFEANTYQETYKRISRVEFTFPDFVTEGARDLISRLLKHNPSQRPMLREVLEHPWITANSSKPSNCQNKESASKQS
The series is described as follows: Immunoblot of AURKA in HiBiT-TTK cells. Format: cell-based. The settings on record: 6 h. The protocol:
The cells were treated with compounds or vehicle for indicated time points and lysed in RIPA lysis buffer (50 mM HEPES pH 7.9, 140 mM NaCl, 1 mM EDTA, 1% Triton X-100, 0.1% SDS, 0.1% sodium deoxycholate) containing protease and phosphatase inhibitors (Sigma) for 20 min at 4 °C. Cell lysates were cleared by centrifugation, and protein concentration was determined with bicinchoninic acid assay. Equal amounts of protein per sample were separated by Bis-Tris-PAGE and transferred to PVDF membranes (Millipore). The membranes were blocked with 5% (w/v) nonfat dry milk in TBS-T [20 mM Tris–HCl, pH 7.5, 150 mM NaCl, 0.1% (v/v) Tween-20] for 1 h at room temperature and incubated with primary antibody at 4 °C overnight. Visualization was carried out using horseradish peroxidase (HRP)-labeled secondary antibodies and detected using a chemiluminescent HRP substrate (Millipore) in LAS3000 or LAS4000 mini (Fujifilm). Vinculin, GAPDH, or B-actin were used as a loading control. […] The signal was quantified using ImageJ or Image Studio Lite against the corresponding loading controls. […]
Figure S2: Cellular degradation studies of SF1-based compounds. […] Indicated MV4-11 HiBiT cells were treated with different concentrations of 15 (B), and 28 (C) for 6 h, lysed, complemented with the large luciferase fragment (largeBiT), and luciferase 27 (A), activity was measured. […]
On the technique in general: Immunoblotting shows a protein as a band on a membrane.

As to `CC(C)S(=O)(=O)c1ccccc1Nc1nc(Nc2ccc(N3CCN(C(=O)CNC(=O)CCCC(=O)Nc4cccc5c4C(=O)N(C4CCC(=O)NC4=O)C5=O)CC3)cc2)nc2[nH]cnc12` (stereo not drawn) [Compound 20], the “residual concentration (% of initial concentration)” value in series [1] (pH 5.2, 37 °C) turned out to be 56%; in series [1] (pH 7.4, 37 °C), 11.2%. The “stability at both pH values” in series [1] (pH 5.2 and 7.4, 37 °C, for 8 h) is “stable”. Besides, the “half-life (t1/2) in human plasma” value in series [2] is given as 4.4 h.
Turning to `Cc1ncsc1-c1ccc(CNC(=O)[C@@H]2C[C@@H](O)CN2C(=O)[C@@H](NC(=O)COCCOCC(=O)N2CCN(c3ccc(Nc4nc(Nc5ccccc5S(=O)(=O)C(C)C)c5nc[nH]c5n4)cc3)CC2)C(C)(C)C)cc1` [Compound 49], the figures for the “relative AURKA level (immunoblot quantification, vehicle = 1.00)” value in series [3] (0.16 µM) and in series [3] (10 µM) were 1.00 and 0.87, respectively.
